Source: ChEMBL document CHEMBL5584255, “Synthesis and antibacterial medicinal evaluation of carbothioamido hydrazonyl thiazolylquinolone with multitargeting antimicrobial potential to combat increasingly global resistance” (Eur J Med Chem, 2024)
Converted amounts (≈) assume the structure as drawn.

Columns and labels:
Format in all cases: functional
Staphylococcus aureus [1] = experiment: Antibacterial activity against Staphylococcus aureus ATCC 25923 by microbroth dilution method
Staphylococcus aureus [2] = experiment: Antibacterial activity against Staphylococcus aureus ATCC 29213 by microbroth dilution method
Staphylococcus aureus [3] = experiment: Antibacterial activity against drug-resistant Staphylococcus aureus by microbroth dilution method
Staphylococcus aureus [4] = experiment: Antibacterial activity against methicillin-resistant Staphylococcus aureus N315 by microbroth dilution method
Enterococcus faecalis = experiment: Antibacterial activity against drug-resistant Enterococcus faecalis by microbroth dilution method
Candida albicans [5] = experiment: Antifungal activity against Candida albicans ATCC 90023
Candida albicans [6] = experiment: Antifungal activity against drug-resistant Candida albicans
Candida parapsilosis = experiment: Antifungal activity against Candida parapsilosis ATCC 22019; conditions: Lodderomyces parapsilosis
Candida tropicalis = experiment: Antifungal activity against drug-resistant Candida tropicalis
Aspergillus fumigatus = experiment: Antifungal activity against Aspergillus fumigatus
Escherichia coli [7] = experiment: Antibacterial activity against Escherichia coli ATCC 25922 by microbroth dilution method
Pseudomonas aeruginosa [8] = experiment: Antibacterial activity against Pseudomonas aeruginosa ATCC 27853 by microbroth dilution method
Escherichia coli [9] = experiment: Antibacterial activity against drug-resistant Escherichia coli by microbroth dilution method
Pseudomonas aeruginosa [10] = experiment: Antibacterial activity against Pseudomonas aeruginosa by microbroth dilution method
Klebsiella pneumoniae = experiment: Antibacterial activity against Klebsiella pneumoniae by microbroth dilution method
Acinetobacter baumannii = experiment: Antibacterial activity against Acinetobacter baumannii by microbroth dilution method

Compound | MIC (Staphylococcus aureus [1]) [µM] | MIC (Staphylococcus aureus [2]) [µM] | MIC (Staphylococcus aureus [3]) [µM] | MIC (Staphylococcus aureus [4]) [µM] | MIC (Enterococcus faecalis) [µM] | MIC (Candida albicans [5]) [µM] | MIC (Candida albicans [6]) [µM] | MIC (Candida parapsilosis) [µM] | MIC (Candida tropicalis) [µM] | MIC (Aspergillus fumigatus) [µM] | MIC (Escherichia coli [7]) [µM] | MIC (Pseudomonas aeruginosa [8]) [µM] | MIC (Escherichia coli [9]) [µM] | MIC (Pseudomonas aeruginosa [10]) [µM] | MIC (Klebsiella pneumoniae) [µM] | MIC (Acinetobacter baumannii) [µM]
Cc1nc(-c2c[nH]c3cc(F)c(F)cc3c2=O)cs1 | 460 (≈ 128 µg/mL) | 921 (≈ 256 µg/mL) | 1840 (≈ 513 µg/mL) | 460 (≈ 128 µg/mL) | 460 (≈ 128 µg/mL) | 115 (≈ 32 µg/mL) | 460 (≈ 128 µg/mL) | 1840 (≈ 513 µg/mL) | 921 (≈ 256 µg/mL) | 921 (≈ 256 µg/mL) | 460 (≈ 128 µg/mL) | 460 (≈ 128 µg/mL) | 1840 (≈ 513 µg/mL) | 921 (≈ 256 µg/mL) | 1840 (≈ 513 µg/mL) | 1840 (≈ 513 µg/mL)
CC(=O)Cn1cc(-c2csc(N)n2)c(=O)c2cccc(F)c21 | 404 (≈ 128 µg/mL) | 807 (≈ 256 µg/mL) | 807 (≈ 256 µg/mL) | 404 (≈ 128 µg/mL) | 404 (≈ 128 µg/mL) | 404 (≈ 128 µg/mL) | 404 (≈ 128 µg/mL) | 404 (≈ 128 µg/mL) | 202 (≈ 64.1 µg/mL) | 404 (≈ 128 µg/mL) | 807 (≈ 256 µg/mL) | 404 (≈ 128 µg/mL) | 807 (≈ 256 µg/mL) | 807 (≈ 256 µg/mL) | 404 (≈ 128 µg/mL) | 404 (≈ 128 µg/mL)
Cc1nc(-c2c[nH]c3c(F)cccc3c2=O)cs1 | 985 (≈ 256 µg/mL) | 1970 (≈ 513 µg/mL) | 1970 (≈ 513 µg/mL) | 1970 (≈ 513 µg/mL) | 985 (≈ 256 µg/mL) | 985 (≈ 256 µg/mL) | 985 (≈ 256 µg/mL) | 492 (≈ 128 µg/mL) | 492 (≈ 128 µg/mL) | 492 (≈ 128 µg/mL) | 985 (≈ 256 µg/mL) | 492 (≈ 128 µg/mL) | 1970 (≈ 513 µg/mL) | 985 (≈ 256 µg/mL) | 985 (≈ 256 µg/mL) | 492 (≈ 128 µg/mL)
CC(=O)Cn1cc(-c2csc(N)n2)c(=O)c2cc(F)c(F)cc21 | 382 (≈ 128 µg/mL) | 382 (≈ 128 µg/mL) | 382 (≈ 128 µg/mL) | 382 (≈ 128 µg/mL) | 382 (≈ 128 µg/mL) | 382 (≈ 128 µg/mL) | 764 (≈ 256 µg/mL) | 764 (≈ 256 µg/mL) | 764 (≈ 256 µg/mL) | 382 (≈ 128 µg/mL) | 382 (≈ 128 µg/mL) | 382 (≈ 128 µg/mL) | 764 (≈ 256 µg/mL) | 382 (≈ 128 µg/mL) | 764 (≈ 256 µg/mL) | 382 (≈ 128 µg/mL)
C/C(Cn1cc(-c2csc(C)n2)c(=O)c2cc(F)c(Cl)cc21)=N\NC(N)=S | 605 (≈ 256 µg/mL) | 605 (≈ 256 µg/mL) | 605 (≈ 256 µg/mL) | 605 (≈ 256 µg/mL) | 605 (≈ 256 µg/mL) | 605 (≈ 256 µg/mL) | 605 (≈ 256 µg/mL) | 605 (≈ 256 µg/mL) | 303 (≈ 128 µg/mL) | 1210 (≈ 513 µg/mL) | 605 (≈ 256 µg/mL) | 303 (≈ 128 µg/mL) | 605 (≈ 256 µg/mL) | 605 (≈ 256 µg/mL) | 605 (≈ 256 µg/mL) | 605 (≈ 256 µg/mL)
Nc1nc(-c2c[nH]c3cc(Cl)c(F)cc3c2=O)cs1 | 217 (≈ 64.2 µg/mL) | 434 (≈ 128 µg/mL) | 868 (≈ 257 µg/mL) | 1740 (≈ 513 µg/mL) | 868 (≈ 257 µg/mL) | 109 (≈ 32.2 µg/mL) | 217 (≈ 64.2 µg/mL) | 1740 (≈ 513 µg/mL) | 217 (≈ 64.2 µg/mL) | 217 (≈ 64.2 µg/mL) | 217 (≈ 64.2 µg/mL) | 868 (≈ 257 µg/mL) | 434 (≈ 128 µg/mL) | 868 (≈ 257 µg/mL) | 868 (≈ 257 µg/mL) | 868 (≈ 257 µg/mL)
C/C(Cn1cc(-c2csc(N)n2)c(=O)c2cc(F)ccc21)=N\NC(N)=S | 82 (≈ 32 µg/mL) | 82 (≈ 32 µg/mL) | 82 (≈ 32 µg/mL) | 164 (≈ 64 µg/mL) | 328 (≈ 128 µg/mL) | 328 (≈ 128 µg/mL) | 328 (≈ 128 µg/mL) | 656 (≈ 256 µg/mL) | 328 (≈ 128 µg/mL) | 656 (≈ 256 µg/mL) | 164 (≈ 64 µg/mL) | 656 (≈ 256 µg/mL) | 328 (≈ 128 µg/mL) | 656 (≈ 256 µg/mL) | 656 (≈ 256 µg/mL) | 328 (≈ 128 µg/mL)
Cc1nc(-c2c[nH]c3c(F)cc(F)cc3c2=O)cs1 | 460 (≈ 128 µg/mL) | 460 (≈ 128 µg/mL) | 921 (≈ 256 µg/mL) | 460 (≈ 128 µg/mL) | 460 (≈ 128 µg/mL) | 460 (≈ 128 µg/mL) | 1840 (≈ 513 µg/mL) | 921 (≈ 256 µg/mL) | 921 (≈ 256 µg/mL) | 921 (≈ 256 µg/mL) | 921 (≈ 256 µg/mL) | 1840 (≈ 513 µg/mL) | 1840 (≈ 513 µg/mL) | 1840 (≈ 513 µg/mL) | 460 (≈ 128 µg/mL) | 921 (≈ 256 µg/mL)
C/C(Cn1cc(-c2csc(N)n2)c(=O)c2cccc(F)c21)=N\NC(N)=S | 41 (≈ 16 µg/mL) | 21 (≈ 8.2 µg/mL) | 21 (≈ 8.2 µg/mL) | 41 (≈ 16 µg/mL) | 328 (≈ 128 µg/mL) | 328 (≈ 128 µg/mL) | 656 (≈ 256 µg/mL) | 656 (≈ 256 µg/mL) | 656 (≈ 256 µg/mL) | 1310 (≈ 513 µg/mL) | 328 (≈ 128 µg/mL) | 328 (≈ 128 µg/mL) | 656 (≈ 256 µg/mL) | 656 (≈ 256 µg/mL) | 328 (≈ 128 µg/mL) | 656 (≈ 256 µg/mL)
Nc1nc(Cn2cc(-c3csc(N)n3)c(=O)c3cc(F)c(Cl)cc32)cs1 | 39 (≈ 15.9 µg/mL) | 20 (≈ 8.16 µg/mL) | 39 (≈ 15.9 µg/mL) | 315 (≈ 128 µg/mL) | 315 (≈ 128 µg/mL) | 39 (≈ 15.9 µg/mL) | 157 (≈ 64 µg/mL) | 79 (≈ 32.2 µg/mL) | 315 (≈ 128 µg/mL) | 315 (≈ 128 µg/mL) | 20 (≈ 8.16 µg/mL) | 39 (≈ 15.9 µg/mL) | 157 (≈ 64 µg/mL) | 157 (≈ 64 µg/mL) | 315 (≈ 128 µg/mL) | 157 (≈ 64 µg/mL)
